Source: patent publication US7196080B2, “Phenylpyridinecarbonylpiperazinederivative” (Astellas Pharma Inc., priority 2001, dated 2007)

How the values were obtained:
PDE1 = PDE1 inhibitory activity; format: biochemical; settings: in the same concentration (as the PDE4 IC50, 12 nM or less)
Method: (§1) A concentration of test compound which inhibits 50% of the metabolic activity of PDE4 was defined as IC50 and calculated for each compound. By applying the above test method and the method described in WO 97/19078, inhibitory activity against PDE1, PDE2, PDE3 and PDE5 was measured similarly.

PDE2 = PDE2 (Homo sapiens, UniProt O00408); assay: PDE2 inhibitory activity; format: biochemical; settings: in the same concentration (as the PDE4 IC50, 12 nM or less)
Chain of PDE2 (O00408 whole entry): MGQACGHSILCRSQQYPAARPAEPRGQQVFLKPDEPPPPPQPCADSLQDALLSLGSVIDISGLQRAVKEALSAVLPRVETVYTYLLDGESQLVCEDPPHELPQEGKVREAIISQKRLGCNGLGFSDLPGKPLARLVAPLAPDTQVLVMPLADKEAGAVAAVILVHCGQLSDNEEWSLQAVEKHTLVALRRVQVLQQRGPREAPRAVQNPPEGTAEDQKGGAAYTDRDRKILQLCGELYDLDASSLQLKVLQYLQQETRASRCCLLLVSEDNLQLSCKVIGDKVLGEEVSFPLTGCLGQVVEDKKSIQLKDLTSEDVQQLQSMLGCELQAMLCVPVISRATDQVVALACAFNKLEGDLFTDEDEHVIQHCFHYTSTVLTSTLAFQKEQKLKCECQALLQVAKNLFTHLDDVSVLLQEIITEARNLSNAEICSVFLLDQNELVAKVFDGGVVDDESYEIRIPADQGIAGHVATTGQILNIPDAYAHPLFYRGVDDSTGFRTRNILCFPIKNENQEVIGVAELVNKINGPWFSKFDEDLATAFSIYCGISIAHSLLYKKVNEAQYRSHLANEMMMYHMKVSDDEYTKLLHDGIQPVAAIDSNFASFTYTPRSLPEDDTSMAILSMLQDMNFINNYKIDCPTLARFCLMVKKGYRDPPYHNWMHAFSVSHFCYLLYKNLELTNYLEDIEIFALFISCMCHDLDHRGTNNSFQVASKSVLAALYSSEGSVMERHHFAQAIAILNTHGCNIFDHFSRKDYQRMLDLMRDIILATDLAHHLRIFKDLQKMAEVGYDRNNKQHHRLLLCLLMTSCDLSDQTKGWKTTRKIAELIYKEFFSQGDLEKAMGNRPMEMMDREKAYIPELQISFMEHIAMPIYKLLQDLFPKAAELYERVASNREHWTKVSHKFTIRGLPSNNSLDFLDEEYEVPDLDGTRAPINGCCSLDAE
Method: as §1

PDE3 = PDE3 inhibitory activity; format: biochemical; settings: in the same concentration (as the PDE4 IC50, 12 nM or less)
Method: as §1

PDE5 = PDE5 (Homo sapiens, UniProt O76074); assay: PDE5 inhibitory activity; format: biochemical; settings: in the same concentration (as the PDE4 IC50, 12 nM or less)
Method: as §1

| Compound | inhibitory activity against PDE1 (PDE1) | inhibitory activity against PDE2 (PDE2) | inhibitory activity against PDE3 (PDE3) | inhibitory activity against PDE5 (PDE5) | melting point |
| --- | --- | --- | --- | --- | --- |
| COc1ccc(-c2cccc(C(=O)N3CCN(c4ccc(OCc5cc[n+]([O-])cc5)cc4)CC3)n2)cc1OC [Example 10, 1-[6-(3,4-dimethoxyphenyl)pyridine-2-carbonyl]-4-[4-(1-oxido-4-pyridylmethoxy)phenyl]piperazine] | hardly exhibited inhibitory activity | hardly exhibited inhibitory activity | hardly exhibited inhibitory activity | hardly exhibited inhibitory activity | 182 to 183 °C |
| COc1ccc(-c2cccc(C(=O)N3CCN(c4ccc(C(N)=O)cc4)CC3)n2)cc1OC [Example 12, 4-{4-[6-(3,4-dimethoxyphenyl)pyridine-2-carbonyl]piperazin-1-yl}benzamide] | – | – | – | – | 237 to 240 °C |
| COc1ccc(-c2cccc(C(=O)N3CCN(c4ccc(N)cc4)CC3)n2)cc1OC [Example 9, 1-[6-(3,4-dimethoxyphenyl)pyridine-2-carbonyl]-4-(4-aminophenyl) piperazine] | – | – | – | – | 164 to 165 °C |
| COc1ccc(-c2cccc(C(=O)N3CCN(c4cccc(Br)n4)CC3)n2)cc1OC [Example 77, 1-(6-bromo-2-pyridyl)-4-[6-(3,4-dimethoxyphenyl)pyridine-2-carbonyl]piperazine] | hardly exhibited inhibitory activity | hardly exhibited inhibitory activity | hardly exhibited inhibitory activity | hardly exhibited inhibitory activity | 144 to 145 °C |
| COc1ccc(N2CCN(C(=O)c3cccc(-c4ccc(OC)c(OC)c4)n3)CC2)cc1 [Example 2, 1-[6-(3,4-dimethoxyphenyl)pyridine-2-carbonyl]-4-(4-methoxyphenyl)piperazine] | hardly exhibited inhibitory activity | hardly exhibited inhibitory activity | hardly exhibited inhibitory activity | hardly exhibited inhibitory activity | 169 to 172 °C |
| 4-{2-[(6-{4-]6-(3,4-dimethoxyphenyl)pyridine-2-carbonyl)piperazin-1-yl}-3-pyridyl}oxylethyl)morpholine [Example 99] | hardly exhibited inhibitory activity | hardly exhibited inhibitory activity | hardly exhibited inhibitory activity | hardly exhibited inhibitory activity | – |
| COc1ccc(-c2cccc(C(=O)N3CCN(c4ccc(C(C)=O)cc4)CC3)n2)cc1OC [Example 32] | hardly exhibited inhibitory activity | hardly exhibited inhibitory activity | hardly exhibited inhibitory activity | hardly exhibited inhibitory activity | 161 to 163 °C |
| COc1ccc(-c2cccc(C(=O)N3CCN(c4ccc(NC(C)=O)cc4)CC3)n2)cc1OC [Example 43, 4′-{4-[6-(3,4-dimethoxyphenyl)pyridine-2-carbonyl]piperazin-1-yl}acetanilide] | hardly exhibited inhibitory activity | hardly exhibited inhibitory activity | hardly exhibited inhibitory activity | hardly exhibited inhibitory activity | 201 to 203 °C |
| COc1ccc(-c2cccc(C(=O)N3CCN(c4ccc(OCCN5CCC(O)CC5)cc4)CC3)n2)cc1OC [Example 95, 1-[2-(4-{4-[6-(3,4-dimethoxyphenyl)pyridine-2-carbonyl]piperazin-1-yl}phenoxy)ethyl]piperidin-4-ol] | hardly exhibited inhibitory activity | hardly exhibited inhibitory activity | hardly exhibited inhibitory activity | hardly exhibited inhibitory activity | 143 to 144 °C |
| COc1ccc(-c2cccc(C(=O)N3CCN(c4ccc(C(C)=O)cc4)CC3)n2)cc1F [Example 115] | – | – | – | – | 168 to 170 °C |
| COc1ccc(-c2cccc(C(=O)N3CCN(c4ccc(NS(C)(=O)=O)cc4)CC3)n2)cc1OC [Example 16, 4′-{4-[6-(3,4-dimethoxyphenyl)pyridine-2-carbonyl]piperazin-1-yl}methanesulfonanilide] | – | – | – | – | 168 to 170 °C |
| COc1ccc(-c2cccc(C(=O)N3CCN(c4ccc(C(C)=O)cc4)CC3)n2)cc1OC(F)F [Example 114] | – | – | – | – | 160 to 162 °C |
| COc1ccc(-c2cccc(C(=O)N3CCN(c4ccc(N5CCOCC5)cc4)CC3)n2)cc1OC [Example 15, 4-(4-{4-[6-(3,4-dimethoxyphenyl)pyridine-2-carbonyl]piperazin-1-yl)phenyl)morpholine] | hardly exhibited inhibitory activity | hardly exhibited inhibitory activity | hardly exhibited inhibitory activity | hardly exhibited inhibitory activity | 129 to 130 °C |
| COc1ccc(-c2cccc(C(=O)N3CCN(c4ccc(C(C)=O)cc4)CC3)n2)cc1OCC1CC1 (hydrate or solvate) [Example 112, 1-(4-{4-[6-(3-cyclopropylmethoxy-4-methoxyphenyl)pyridine-2-carbonyl]piperazin-1-yl}phenyl)ethanone] | – | – | – | – | 142 to 144 °C |
| COc1ccc(-c2cccc(C(=O)N3CCN(c4ccc(C(C)=O)cc4)CC3)n2)cc1OCC1CC1 [Example 112, 1-(4-{4-[6-(3-cyclopropylmethoxy-4-methoxyphenyl)pyridine-2-carbonyl]piperazin-1-yl}phenyl)ethanone] | hardly exhibited inhibitory activity | hardly exhibited inhibitory activity | hardly exhibited inhibitory activity | hardly exhibited inhibitory activity | – |
| CCN(CC)CCC(=O)Nc1ccc(N2CCN(C(=O)c3cccc(-c4ccc(OC)c(OC)c4)n3)CC2)cc1 [Example 45, 3-diethylamino-4′-{4-[6-(3,4-dimethoxyphenyl)pyridine-2-carbonyl]piperazin-1-yl}propananilide] | hardly exhibited inhibitory activity | hardly exhibited inhibitory activity | hardly exhibited inhibitory activity | hardly exhibited inhibitory activity | 131 to 134 °C |
| COc1ccc(-c2cccc(C(=O)N3CCN(c4ccc(C(C)=O)cc4)CC3)n2)cc1Cl [Example 113] | – | – | – | – | 168 to 170 °C |
